Data: ChEMBL document CHEMBL2331144, “Synthesis and anticancer activity of analogues of phenstatin, with a phenothiazine A-ring, as a new class of microtubule-targeting agents” (Bioorg Med Chem Lett, 2013)
pIC50: −log10 of the molar value.

How the values were obtained:
NCI-H460 = test: Growth inhibition of human NCI-H460 cells after 48 hrs by sulforhodamine B assay; type: functional; details: NCI-H460, 48 h
[1] = Inhibition of sheep brain tubulin polymerization using DAPI by fluorimetry; set-up: species or system Ovis aries
Ovis aries = species on record: Ovis aries; test: Inhibition of sheep brain tubulin polymerization at 100 uM using DAPI by fluorimetry
MCF7 [2] = test: Growth inhibition of human MCF7 cells after 48 hrs by sulforhodamine B assay; type: functional; details: MCF7, 48 h
SF-295 [3] = test: Growth inhibition of human SF295 cells after 48 hrs by sulforhodamine B assay; type: functional; details: SF-295, 48 h
DU-145 = test: Growth inhibition of human DU145 cells after 48 hrs by sulforhodamine B assay; type: functional; details: DU-145, 48 h
A498 [4] = test: Growth inhibition of human A498 cells after 48 hrs by sulforhodamine B assay; type: functional; details: A498, 48 h
OVCAR-3 = test: Growth inhibition of human OVCAR3 cells after 48 hrs by sulforhodamine B assay; type: functional; details: OVCAR-3, 48 h
MDA-MB-468 = test: Growth inhibition of human MDA-MB-468 cells at 10 uM after 48 hrs by sulforhodamine B assay; type: functional; details: MDA-MB-468, 48 h, read-out: GI
T47D = test: Growth inhibition of human T47D cells at 10 uM after 48 hrs by sulforhodamine B assay; type: functional; details: read-out: GI
MDA-MB-231 = test: Growth inhibition of human MDA-MB-231 cells at 10 uM after 48 hrs by sulforhodamine B assay; type: functional; details: MDA-MB-231, 48 h, read-out: GI
MCF7 [5] = test: Growth inhibition of human MCF7 cells at 10 uM after 48 hrs by sulforhodamine B assay; type: functional; details: MCF7, 48 h, read-out: GI
SNB-75 = test: Growth inhibition of human SNB75 cells at 10 uM after 48 hrs by sulforhodamine B assay; type: functional; details: SNB-75, 48 h, read-out: GI
SF-295 [6] = test: Growth inhibition of human SF295 cells at 10 uM after 48 hrs by sulforhodamine B assay; type: functional; details: SF-295, 48 h, read-out: GI
PC-3 = test: Growth inhibition of human PC3 cells at 10 uM after 48 hrs by sulforhodamine B assay; type: functional; details: PC-3, 48 h, read-out: GI
786-0 = test: Growth inhibition of human 786-0 cells at 10 uM after 48 hrs by sulforhodamine B assay; type: functional; details: 786-0, 48 h, read-out: GI
UO-31 = test: Growth inhibition of human UO31 cells at 10 uM after 48 hrs by sulforhodamine B assay; type: functional; details: UO-31, 48 h, read-out: GI
CAKI-1 = test: Growth inhibition of human CAKI-1 cells at 10 uM after 48 hrs by sulforhodamine B assay; type: functional; details: CAKI-1, 48 h, read-out: GI
RXF 393 = test: Growth inhibition of human RXF393 cells at 10 uM after 48 hrs by sulforhodamine B assay; type: functional; details: RXF 393, 48 h, read-out: GI
A498 [7] = test: Growth inhibition of human A498 cells at 10 uM after 48 hrs by sulforhodamine B assay; type: functional; details: A498, 48 h, read-out: GI
[8] = Growth inhibition of human NCI-ADR-RES cells at 10 uM after 48 hrs by sulforhodamine B assay; type: functional; details: read-out: GI
OVCAR-4 = test: Growth inhibition of human OVCAR4 cells at 10 uM after 48 hrs by sulforhodamine B assay; type: functional; details: OVCAR-4, 48 h, read-out: GI
SK-MEL-5 = test: Growth inhibition of human SK-MEL-5 cells at 10 uM after 48 hrs by sulforhodamine B assay; type: functional; details: SK-MEL-5, 48 h, read-out: GI
Malme-3M = test: Growth inhibition of human MALME-3M cells at 10 uM after 48 hrs by sulforhodamine B assay; type: functional; details: read-out: GI
LOX IMVI = test: Growth inhibition of human LOXIMVI cells at 10 uM after 48 hrs by sulforhodamine B assay; type: functional; details: read-out: GI
UACC-62 = test: Growth inhibition of human UACC62 cells at 10 uM after 48 hrs by sulforhodamine B assay; type: functional; details: UACC-62, 48 h, read-out: GI
KM12 = test: Growth inhibition of human KM12 cells at 10 uM after 48 hrs by sulforhodamine B assay; type: functional; details: KM12, 48 h, read-out: GI
MDA-MB-435 = test: Growth inhibition of human MDA-MB-435 cells at 10 uM after 48 hrs by sulforhodamine B assay; type: functional; details: MDA-MB-435, 48 h, read-out: GI
HCT-15 = test: Growth inhibition of human HCT15 cells at 10 uM after 48 hrs by sulforhodamine B assay; type: functional; details: HCT-15, 48 h, read-out: GI
HCT-116 = test: Growth inhibition of human HCT116 cells at 10 uM after 48 hrs by sulforhodamine B assay; type: functional; details: HCT-116, 48 h, read-out: GI
COLO 205 = test: Growth inhibition of human COLO205 cells at 10 uM after 48 hrs by sulforhodamine B assay; type: functional; details: COLO 205, 48 h, read-out: GI
NCI-H522 = test: Growth inhibition of human NCI-H522 cells at 10 uM after 48 hrs by sulforhodamine B assay; type: functional; details: NCI-H522, 48 h, read-out: GI
HOP-92 = test: Growth inhibition of human HOP92 cells at 10 uM after 48 hrs by sulforhodamine B assay; type: functional; details: HOP-92, 48 h, read-out: GI
HOP-62 = test: Growth inhibition of human HOP62 cells at 10 uM after 48 hrs by sulforhodamine B assay; type: functional; details: HOP-62, 48 h, read-out: GI
RPMI-8226 = test: Growth inhibition of human RPMI8226 cells at 10 uM after 48 hrs by sulforhodamine B assay; type: functional; details: RPMI-8226, 48 h, read-out: GI
MOLT-4 = test: Growth inhibition of human MOLT4 cells at 10 uM after 48 hrs by sulforhodamine B assay; type: functional; details: MOLT-4, 48 h, read-out: GI
HL-60(TB) = test: Growth inhibition of human HL-60(TB) cells at 10 uM after 48 hrs by sulforhodamine B assay; type: functional; details: HL-60, 48 h, read-out: GI
CCRF-CEM = test: Growth inhibition of human CCRF-CEM cells at 10 uM after 48 hrs by sulforhodamine B assay; type: functional; details: read-out: GI

SMILES: COc1ccc(C(=O)c2cc(OC)c(OC)c(OC)c2)cc1O [PHENSTATIN]
- GI50 (NCI-H460): 6 nM
- pIC50 [1]: 5.46
- inhibition (Ovis aries): 99%
- GI50 (MCF7 [2]): 437 nM
- GI50 (SF-295 [3]): 52 nM
- GI50 (DU-145): 34 nM
- GI50 (A498 [4]): 380 nM
- GI50 (OVCAR-3): 2 nM

SMILES: CCOC(=O)c1cc(C(=O)N2c3ccccc3Sc3ccccc32)n2ccc(N(C)C)cc12
- inhibition (Ovis aries): 42%
- inhibition of growth at 10 µM (MDA-MB-468): 19.7%
- inhibition of growth at 10 µM (T47D): 14.7%
- inhibition of growth at 10 µM (MDA-MB-231): 7.2%
- inhibition of growth at 10 µM (MCF7 [5]): 18.5%
- inhibition of growth at 10 µM (SNB-75): 30.1%
- inhibition of growth at 10 µM (SF-295 [6]): 22.8%
- inhibition of growth at 10 µM (PC-3): 50.7%
- inhibition of growth at 10 µM (786-0): 0%
- inhibition of growth at 10 µM (UO-31): 0%
- inhibition of growth at 10 µM (CAKI-1): 23.2%
- inhibition of growth at 10 µM (RXF 393): 33.3%
- inhibition of growth at 10 µM (A498 [7]): 4.4%
- inhibition of growth at 10 µM [8]: 29.4%
- inhibition of growth at 10 µM (OVCAR-4): 9.5%
- inhibition of growth at 10 µM (SK-MEL-5): 23.2%
- inhibition of growth at 10 µM (Malme-3M): 22.7%
- inhibition of growth at 10 µM (LOX IMVI): 20.2%
- inhibition of growth at 10 µM (UACC-62): 27.7%
- inhibition of growth at 10 µM (KM12): 26.4%
- inhibition of growth at 10 µM (MDA-MB-435): 74.5%
- inhibition of growth at 10 µM (HCT-15): 18.3%
- inhibition of growth at 10 µM (HCT-116): 12.1%
- inhibition of growth at 10 µM (COLO 205): 0%
- inhibition of growth at 10 µM (NCI-H522): 26.2%
- inhibition of growth at 10 µM (HOP-92): 18.4%
- inhibition of growth at 10 µM (HOP-62): 29.5%
- inhibition of growth at 10 µM (RPMI-8226): 0%
- inhibition of growth at 10 µM (MOLT-4): 15.3%
- inhibition of growth at 10 µM (HL-60(TB)): 6.7%
- inhibition of growth at 10 µM (CCRF-CEM): 27.1%
